Experiments:
[1] = Methylphenidate antagonism (mice biting corrugated paper); format: in vivo; conditions: for ED50: Mus musculus, ip
Protocol: Methylphenidate antagonism (ED50 mg/kg i.p.)
Perspex observation cages without bottom and lid, consisting of 5 sections each measuring 12×25×30 cm. White corrugated paper. Mice, male, 18-25 g.
The test substance is given i.p. in the doses 0, 1/8, 1/32 and 1/128 of the determined "i.p. LD50". 3×2 mice are used for each dose level. Two or 24 hours after injection of test substance, methylphenidate, 60 mg/kg, is injected s.c. After administration of methylphenidate the mice are placed in the observation cages, 2 in each cage, where they remain for exactly 1 hour. The cages are placed on corrugated paper, the corrugations facing upwards. It is examined whether the mice have been biting the corrugated paper or not. […] If one or more of the control pairs have not been biting, the test has to be repeated on a new set of mice.
The result is stated in fractions: 0/3, 1/3, 2/3 and 3/3 where 0, 1, 2 and 3 are the number of pairs which have not been biting on receipt of the dose in question.
The results are calculated as the dose (ED50), which causes antagonism in 50% of the test animals.

[2] = Neuroleptic effect: duration and strength (remarks of Table 2); format: in vivo; conditions: in words; for Duration (remarks, words): duration of neuroleptic effect; for Strength of effect (remarks, words): strength of neuroleptic effect
From the text: The pharmacological testing of the novel xanthones and thioxanthenes of Formula I consisted of standard and reliable tests. […]

[3] = Amphetamine antagonism (stereotypy in rats); format: in vivo; conditions: Rattus norvegicus, ip, 24 h, read-out: Amphetamine antagonism ED50
[4] = Catalepsy wire mesh, rat, max.; format: in vivo, rats; conditions: for ED50: Rattus norvegicus, sc, rats, s.c., strongest effect within first 6 hours, read-out: Catalepsy wire mesh, rat, max. ED50
Protocol: Catalepsy wire mesh, rat, max. (ED50 mg/kg s.c.)
A vertical wire netting (50 cm×49 cm). The meshes (openings) of the netting are square (1 cm×1 cm). The wire diameter is 2 mm. Stop watch. Rats, male, 180-200 g.
The animals are labeled and used in groups of five. The test substance is injected subcutaneously (s.c.) (5 ml/kg) at 4 dose levels selected from the fixed dose scale.
The animals are placed in the middle of the vertical wire netting 60, 120, 180, 240, 300 and 360 minutes after injection of the test compound. The animals are considered cataleptic when they remain immobile during a period of 15 seconds. This cataleptic reaction is designated +. If the rats are "atonic" and passively slide down the wire mesh they are considered not cataleptic. If the animals climb up and down the wire mesh they are nor cataleptic. In both situations the designation - is used.

[5] = mice, i.p., methylphenidate 60 mg/kg s.c. 2 h after test substance, read-out: Methylphenidate antagonism ED50, 2 h
[6] = mice, i.p., methylphenidate 60 mg/kg s.c. 24 h after test substance, read-out: Methylphenidate antagonism ED50, 24 h
[7] = 2 h, read-out: Methylphenidate antagonism ED50, 2 h
[8] = 24 h, read-out: Methylphenidate antagonism ED50, 24 h

Cc1ccc2c(c1)Sc1ccc(F)cc1C2=C1CCN(C[C@H]2CC[C@H](O)CC2)CC1 [Lu 14-090, 1-(trans-4-hydroxycyclohexylmethyl)-4-(2-fluoro-6-methyl-9-thioxanthenylidene)-piperidine]
ED50 [1, 5]: 1.25 mg/kg
ED50 [1, 6]: 32 mg/kg
Duration (remarks, words) [2]: short acting
Strength of effect (remarks, words) [2]: moderately strong

O=C1OCCN1CCN1CCC(=C2c3ccc(F)cc3Sc3ccc(Cl)cc32)CC1 [Lu 14-117, 1-(2-(2-Oxazolidinon-3-yl)ethyl)-4-(2-chloro-6-fluoro-9-thioxanthenylidene)piperidine]
ED50 [1, 5]: 0.21 mg/kg
ED50 [1, 6]: 29 mg/kg
ED50 [3]: 0.34 mg/kg
ED50 [4]: 1 mg/kg
Duration (remarks, words) [2]: short acting
Strength of effect (remarks, words) [2]: strong

O=C1NCCN1CCN1CCC(=C2c3ccc(F)cc3Sc3ccc(C(F)(F)F)cc32)CC1 [Lu 16-104]
ED50 [1, 5]: 0.06 mg/kg
ED50 [1, 6]: 1.5 mg/kg
ED50 [3]: 0.15 mg/kg
ED50 [4]: 0.11 mg/kg
Duration (remarks, words) [2]: relatively short acting
Strength of effect (remarks, words) [2]: strong

CSc1ccc2c(c1)C(=C1CCN(C[C@H]3CC[C@H](O)CC3)CC1)c1ccc(F)cc1O2 [Lu 15-119, 1-(Trans-4-hydroxycyclohexylmethyl)-4-(2-methylthio-6-fluoro-9-xanthenylidene)piperidine]
ED50 [1, 5]: 0.09 mg/kg
ED50 [1, 6]: 0.11 mg/kg
ED50 [3]: 0.56 mg/kg
ED50 [4]: 0.08 mg/kg
Cataleptic activity ([4]; in words): have a cataleptic activity
Duration (remarks, words) [2]: long acting
Strength of effect (remarks, words) [2]: very strong

CN(C)CCCN1c2ccccc2Sc2ccc(Cl)cc21 [chlorpromazine, reference compound]
ED50 [1, 7]: 4 mg/kg
ED50 [1, 8]: 20 mg/kg
ED50 [3]: 7.1 mg/kg
ED50 [4]: 5.6 mg/kg
Duration (remarks, words) [2]: short acting
Strength of effect (remarks, words) [2]: moderatley strong

CN(C)CC/C=C1/c2ccccc2Sc2ccc(Cl)cc21 [chlorprothixene, reference compound]
ED50 [1, 7]: 0.71 mg/kg
ED50 [1, 8]: > 20 mg/kg
ED50 [3]: 6.1 mg/kg
ED50 [4]: 4 mg/kg
Duration (remarks, words) [2]: short acting
Strength of effect (remarks, words) [2]: moderately strong

1-(2-Oxazolidinon-3-yl)ethyl)-4-(2-fluoro-6-methyl-9-thioxanthenylidene)-piperidine [Lu-15-062]
Methylphenidate antagonism ED50, 2 h ([1]; mice, i.p., methylphenidate 60 mg/kg s.c. 2 h after test substance): 0.51 mg/kg
Methylphenidate antagonism ED50, 24 h ([1]; mice, i.p., methylphenidate 60 mg/kg s.c. 24 h after test substance): > 40 mg/kg
Duration (remarks, words) [2]: short acting
Strength of effect (remarks, words) [2]: moderately strong

O[C@H]1CC[C@@H](CN2CCC(=C3c4ccccc4Sc4ccc(Cl)cc43)CC2)CC1 [Lu 15-014, 1-(Cis-4-hydroxycyclohexylmethyl)-4-(2-chloro-9-thioxanthenylidene)-piperidine]
ED50 [1, 5]: 0.2 mg/kg
ED50 [1, 6]: > 10 mg/kg
ED50 [4]: 2.5 mg/kg
Duration (remarks, words) [2]: short acting
Strength of effect (remarks, words) [2]: strong

O[C@@H]1CC[C@H](CN2CCC(=C3c4ccccc4Sc4ccc(Cl)cc43)CC2)C[C@H]1O (relative stereo) [Lu 15-041, 1-(3-trans-4-cis-dihydroxycyclohexylmethyl)-4-(2-chloro-9-thioxanthenylidene)piperidine]
ED50 [1, 5]: 0.62 mg/kg
ED50 [1, 6]: 3.6 mg/kg
ED50 [3]: < 0.31 mg/kg
Duration (remarks, words) [2]: moderately long acting
Strength of effect (remarks, words) [2]: strong

OC1COC(CN2CCC(=C3c4ccccc4Sc4ccc(Cl)cc43)CC2)OC1 (centres unmarked) [Lu 14-140, 1-(5-hydroxy-1,3-dioxan-2-yl)methyl-4-(2-chloro-9-thioxanthenylidene)-piperidine]
ED50 [1, 5]: 0.77 mg/kg
ED50 [1, 6]: > 40 mg/kg
Duration (remarks, words) [2]: short acting
Strength of effect (remarks, words) [2]: strong

Cc1ccc2c(c1)C(=C1CCN(C[C@H]3CC[C@H](O)CC3)CC1)c1ccc(F)cc1S2 [Lu 14-082, 1-(trans-4-hydroxycyclohexylmethyl)-4-(2-methyl-6-fluoro-9-thioxanthenylidene)-piperidine]
ED50 [1, 5]: 0.79 mg/kg
ED50 [1, 6]: > 10 mg/kg
Duration (remarks, words) [2]: short acting
Strength of effect (remarks, words) [2]: moderately strong

O[C@@H]1CC[C@H](CN2CCC(=C3c4ccc(F)cc4Sc4ccc(Cl)cc43)CC2)C[C@H]1O (relative stereo) [Lu 15-070, 1-(3-trans-4-cis-dihydroxycyclohexylmethyl)-4-(2-chloro-6-fluoro-9-thioxanthenylidene)-piperidine]
ED50 [1, 5]: 0.51 mg/kg
ED50 [1, 6]: 0.5 mg/kg
Duration (remarks, words) [2]: moderately long acting

O[C@H]1CC[C@H](CN2CCC(=C3c4ccc(F)cc4Sc4ccc(Cl)cc43)CC2)CC1 [Lu 14-114, 1-(trans-4-hydroxycyclohexylmethyl)-4-(2-chloro-6-fluoro-9-thioxanthenylidene)-piperidine]
ED50 [1, 5]: 0.1 mg/kg
ED50 [1, 6]: 6.6 mg/kg
ED50 [3]: 0.35 mg/kg
Duration (remarks, words) [2]: short acting
Strength of effect (remarks, words) [2]: strong

O[C@H]1CCCC[C@H]1CN1CCC(=C2c3ccc(F)cc3Sc3ccc(C(F)(F)F)cc32)CC1 (relative stereo) [Lu 15-138, 1-(cis-2-hydroxycyclohexylmethyl)-4-(2-trifluoromethyl-6-fluoro-9-thioxanthenylidene)-piperidine]
ED50 [1, 5]: 1.3 mg/kg
ED50 [1, 6]: 0.15 mg/kg
ED50 [3]: 1.7 mg/kg
Duration (remarks, words) [2]: long acting
Strength of effect (remarks, words) [2]: strong

CN(C)S(=O)(=O)c1ccc2c(c1)C(=C1CCN(C[C@H]3CC[C@H](O)CC3)CC1)c1ccc(F)cc1S2 [Lu 16-107, 1-(Trans-4-hydroxycyclohexylmethyl)-4-(2-dimethylsulfamoyl-6-fluoro-9-thioxanthenylidene)piperidine]
ED50 [1, 5]: 1.9 mg/kg
ED50 [1, 6]: 0.76 mg/kg
ED50 [4]: 0.28 mg/kg
Duration (remarks, words) [2]: long acting
Strength of effect (remarks, words) [2]: moderately strong

O[C@H]1CC[C@H](CN2CCC(=C3c4ccc(F)cc4Sc4cc(F)ccc43)CC2)CC1 [Lu 15-062, 1-(trans-4-hydroxycyclohexylmethyl)-4-(3,6-di-fluoro-9-thioxanthenylidene)-piperidine]
ED50 [1, 5]: 0.77 mg/kg
ED50 [1, 6]: > 10 mg/kg
ED50 [3]: 0.85 mg/kg
Duration (remarks, words) [2]: short acting
Strength of effect (remarks, words) [2]: moderately strong

Fc1ccc2c(c1)Sc1ccc(C(F)(F)F)cc1C2=C1CCN(CC2CCOCC2)CC1 [Lu 15-031, 1-(4-tetrahydropyranylmethyl)-4-(2-trifluoromethyl-6-fluoro-9-thioxanthenylidene)piperidine]
ED50 [1, 5]: 0.52 mg/kg
ED50 [1, 6]: 0.55 mg/kg
ED50 [3]: 1.3 mg/kg
Duration (remarks, words) [2]: long acting
Strength of effect (remarks, words) [2]: moderately strong

CC1(O)CCC(CN2CCC(=C3c4ccc(F)cc4Sc4ccc(C(F)(F)F)cc43)CC2)CC1 (centres unmarked) [Lu 15-048, 1-(4-hydroxy-4-methylcyclohexylmethyl)-4-(2-trifluoromethyl-6-fluoro-9-thioxanthenylidene)-piperidine]
ED50 [1, 5]: 1.3 mg/kg
ED50 [1, 6]: 0.13 mg/kg
ED50 [3]: < 0.31 mg/kg
Duration (remarks, words) [2]: long acting
Strength of effect (remarks, words) [2]: strong

CC(=O)N[C@H]1CC[C@H](CN2CCC(=C3c4ccc(F)cc4Sc4ccc(C(F)(F)F)cc43)CC2)CC1 [Lu 16-043]
ED50 [1, 5]: > 10 mg/kg
ED50 [1, 6]: 0.42 mg/kg
ED50 [4]: > 20 mg/kg
Duration (remarks, words) [2]: long acting
Strength of effect (remarks, words) [2]: relatively strong

N[C@H]1CC[C@H](CN2CCC(=C3c4ccccc4Sc4ccc(Cl)cc43)CC2)CC1 [Lu 16-081]
ED50 [1, 5]: 0.5 mg/kg
ED50 [1, 6]: ~10 mg/kg
Duration (remarks, words) [2]: short acting
Strength of effect (remarks, words) [2]: moderately strong

CS(=O)(=O)c1ccc2c(c1)C(=C1CCN(C[C@H]3CC[C@H](O)CC3)CC1)c1ccccc1S2 [Lu 16-066, 1-(Trans-4-hydroxycyclohexylmethyl)-4-(2-methylsulfonyl-9-thioxanthenylidene)piperidine]
ED50 [1, 5]: 0.73 mg/kg
ED50 [1, 6]: > 10 mg/kg
ED50 [4]: 0.25 mg/kg
Duration (remarks, words) [2]: short acting
Strength of effect (remarks, words) [2]: moderately strong
